Values quoted from earlier work, collected in US20020040034A1, “Methods for treating allergic asthma using descarboethoxyloratadine” (priority 1997, published 2002).

Tests used:
[1] = system: melanoma and fibrosarcoma tumors
[2] = system: allergic bronchospasm; settings: milligram by milligram basis

Compound | Association with tumor growth [1] | Inhibition of allergic bronchospasm, potency compared with terfenadine [2]
COc1ccc(CCN2CCC(Nc3nc4ccccc4n3Cc3ccc(F)cc3)CC2)cc1 [astemizole] | associated with growth of both melanoma and fibrosarcoma tumors | –
CCOC(=O)N1CCC(=C2c3ccc(Cl)cc3CCc3cccnc32)CC1 [Loratadine] | associated with growth of both melanoma and fibrosarcoma tumors | four times more potent than terfenadine
